Data as given in patent US20140106387A1, “METHOD FOR CONTROLLING NAD(P)/NAD(P)H RATIO BY OXIDOREDUCTASE” (MD BIOALPHA CO., LTD., priority 2006, published 2014).

Experiments:
NQO1 = experiment: NAD(P)H recycling assay (decrease of NAD(P)H by NQO1-activating candidate compounds); format: biochemical; conditions: for Residual amount of NAD(P)H(%): relative amount of NAD(P)H, amount in the absence of the NQO1 activator taken to be 100; for decrease of NAD(P)H and consequent body weight reduction: summary of Table 1 in words
Description: (10) NAD(P)H Recycling Assay
An NADH recycling assay was carried out using the above-extracted S9 supernatant or human recombinant NQO1 (hrNQO1). 20 μg of the S9 supernatant or 0.5 unit of hrNQO1 in conjunction with 200 μM NAD(P)H were added to a 25 mM Tris/HCl (pH 7.4) solution containing 0.2 mg/mL bovine serum albumin. The enzymatic reaction was initiated with addition of a […] compound and absorbance changes were monitored and recorded at 340 nm for 10 min.
(§1) For a variety of NQO1-activating candidate compounds as listed in Table 1 below, a decrease of NAD(P)H was measured based on the aforesaid experimental method (disclosed in Section 10 hereinbefore: NADH recycling assay). In addition, according to the experimental method given in Example 23, the body weight of ob/ob mice after four weeks was measured.
(§2) In this connection, the decreasing degree of NAD(P)H was expressed as a relative amount of NAD(P)H measured upon administration of the NQO1-activating candidate compound, by taking the amount of NAD(P)H in the absence of the NQO1 activator NAD(P)H to be 100. In addition, the degree of the body weight loss was expressed as a percentage of the body weight of ob/ob mice with administration of the NQO1-activating candidate compound, relative to the body weight of ob/ob mice without administration of the NQO1-activating candidate compound (control) after four weeks.

[1] = body weight and dietary intake of leptin receptor-deficient (ob/ob) mice; format: in vivo, mouse; conditions: for Weight reduction In ob/ob mice (4 wk): after four weeks, relative to ob/ob mice without administration (control), method of Example 23
Description: All experimental animal procedures were performed according to a guideline of Institutional Animal Care and Use Committee, Chungnam National University School of Medicine. OLETF rats were purchased from Otsuka Research Institute. Male ob/ob and C57BL/6 mice were purchased from Jackson Laboratory. Animals were housed in a breeding room maintained at a constant temperature of […] and a 12 h/12 h light/dark (L/D) cycle. 4-week-old C57BL/6 male mice were fed ad libitum high fat diet (HFD, 24% (w/w) and 45% calories as fat, Research Diets Inc., New Brunswick, N.J. 08901, US) for 7 weeks. Mouse groups were divided into an untreated group, a vehicle-treated group (calcium silicate), a pair-fed group and a candidate compound-treated group (calcium silicate-coated […] nanoparticles). Body weight and dietary intake of animals were daily measured. Upon completion of experiments, some mice of each group were anesthetized and received MRI examinations. The remaining mice of the groups were anatomized and tissue weight thereof was measured. Epidydimal fat, liver, soleus muscle and extensor digitorum longus (EDL) were prepared, and immunohistochemical, oil-red 0 and pH-sensitive ATPase staining were performed for analysis.
FIGS. 46 and 47 show changes in dietary intake/body weight and changes in body weight for 56 days, according to daily administration of pyrano-1,2-naphthoquinone into leptin receptor-deficient (ob/ob) mice at a dose of 200 mg/kg via an oral route.
This Example was intended to examine effects of varying in vivo NAD(P)^+/NAD(P)H ratio by arbitrary external supply of NAD(P)^+, a method capable of elevating the NAD(P)^+/NAD(P)H ratio in vivo. 100 mg/kg of NAD^+ was administered daily to leptin receptor-deficient (ob/ob) mice via an intraperitoneal (i.p.) route. A control mice group was given i.p. administration of physiological saline at the same dose. Changes in dietary intake/body weight (A) and changes in body weight (B) were measured for 30 days.
200 mg/kg of DMF was daily administered to leptin receptor-deficient (ob/ob) mice via an oral route. A control group received daily i.p. administration of physiological saline at the same dose. Changes in body weight (A) and changes in dietary intake (B) were measured for 30 days. It was confirmed that dietary intake of the treatment group was regulated to a 60 to 70% level of the control group.
as §1, §2

AMPK = AMPK phosphorylation in HEK293 cells (Western blot); format: cell-based, human; conditions: HEK293 cells, AICAR 2 mM, 30 min
Description: Cells were lysed in SDS sample buffer (62.5 mM Tris HCl (pH 6.8), 6% (w/v) SDS, 30% glycerol, 125 mM DTT, and 0.03% (w/v) bromophenol blue). The total cell lysates were boiled at a temperature of 100° C. for 5 min and electrophoresed on a sodium dodecyl sulfate-polyacrylamide gel, and proteins were transferred on a nitrocellulose membrane. The membrane was reacted in TBS (5% (w/v) milk and 0.1% Tween 20) for 1 hour, and then reacted with primary antibodies for 2 hours. Next, the membrane was developed using HRP-conjugated secondary antibodies (Phototope-HRP Western Blot Detection Kit, New England Biolabs, Beverly, Mass.).
In order to investigate the importance of an NQO1 protein in phosphorylation of AMP kinase, HepG2, MCF-7 and HEK293 cells were seeded onto 60 mm plates at a density of 1×10^6 cells/plate. After growing the cells for 24 hours, the culture medium was replaced with a serum-free medium, and cells were treated with pyrano-1,2-naphthoquinone (10 μM) for 30 min, respectively, in combination with a control group (DMSO). Cells were lysed in RIPA buffer and amounts of all proteins were quantified using a spectrophotometer, and 50 μg of the protein was subjected to electrophoresis. AMP kinase phosphorylation was examined using Anti-AMPK and Anti-pT172-AMPK, whereas the NQO1 protein was assayed using Anti-NQO1. From the fact that AMP kinase phosphorylation by pyran-1,2-naphthoquinone (10 μM) was not observed in HEK293 cells, it can be seen that the NQO1 protein is crucial for phosphorylation of AMP kinase.
In order to examine that an activity of NQO1 is important for the phosphorylation of AMP kinase, HEK293 cells were seeded onto a 6-well plate at a density of 1×10^5 cells/well, cultured for 24 hours, and transfected with pSG5-HA-NQO1 (500 ng) and pSG5-HA-NOQ1-C609T (500 ng) plasmids. After 24 hours, the culture medium was replaced with a serum-free medium, and the cells were treated with pyrano-1,2-naphthoquinone (10 μM) and AICAR (2 mM) for 30 min, in combination with a control (DMSO). AMP kinase phosphorylation were assayed using Anti-AMPK and Anti-pT172-AMPK, whereas transfected NQO1 was assayed using Anti-HA.
In addition, AMPK phosphorylation/activation was not promoted in HEK293 cells, except for HEK293 cells transfected with wild type NQO1.

HepG2 cells [2] = experiment: mitochondrial membrane potential (TMRE fluorescence) in HepG2 cells; format: cell-based, human; conditions: dicoumarol-treated cells
Description: For determination of the inner mitochondrial membrane potential (ΔΨm), 20 nM of TMRE (tetramethylrhodamine ethyl ester) as a fluorescent indicator was continuously applied to be loaded on cells. In order to monitor mitochondrial Ca^2+, cells on glass coverslips were loaded with 10 μM Rhod-2 AM via cold loading/warm incubation. In order to monitor cytosolic Ca^2+, cells were co-loaded with 10 μM Fluo-4 AM at 37′C for 30 min. The cells were washed twice with a KB solution, and mounted in a perfusion chamber. Fluorescent imaging was taken using a confocal laser scanning microscope (LSM-510 META, Carl Zeiss) at a magnification of ×200 and ×400, in conjunction with appropriate laser lines and a filter set. Image analysis was carried out using LSM-510 META software (Zeiss). Images for TMRE (red fluorescence), Rhod-2 (red fluorescence) and Fluo-4 (green fluorescence) were obtained using an inverted Zeiss 510META laser-scanning confocal microscope equipped with ×63 numerical aperture, 1.4 oil-immersion planapochromat lens. Green fluorescence and red fluorescence were illuminated with light of 488 nm and 543 nm. Incident light was passed through a 545 nm dichroic mirror and observed via a 500 to 530 nm band-pass (green) filter and a 560 nm long-pass (red) barrier filter.
However, such effects were not observed in HEK293 cells. […]

HepG2 cells [3] = experiment: calcium influx (Fluo-4) in HepG2 cells; format: cell-based, human; conditions: dicoumarol 5 μM pretreated 30 min
Description: Cells were grown on a coverslip in a culture medium for 24 hours, maintained in an RPMI 1640 serum-free medium for 1 hour, and pretreated with a calcium indicator Fluo-4 (5 μM) for 30 min. After pretreatment, the coverslip was mounted on a slide glass. Changes in an intracellular calcium concentration were observed using a fluorescence microscope (Carl Zeiss) for 30 sec, and cells were treated with a candidate compound (e.g. pyran-1,2-naphthoquinone) simultaneously with consecutive imaging of calcium changes using a fluorescence microscope (Carl Zeiss) for 2 sec. […] Changes in the intracellular calcium concentration were observed using a fluorescence microscope (Carl Zeiss) for 30 sec, and cells were treated with pyre-1,2-naphthoquinone (10 μM), followed by continuous shooting of calcium changes using a fluorescence microscope for 2 sec. Using an LSM Image Browser program (Carl Zeiss), 300 images taken for 10 min every 2 seconds were sorted and ordered in a time sequence and plotted on a graph.
For determination of the inner mitochondrial membrane potential (ΔΨm), 20 nM of TMRE (tetramethylrhodamine ethyl ester) as a fluorescent indicator was continuously applied to be loaded on cells. In order to monitor mitochondrial Ca^2+, cells on glass coverslips were loaded with 10 μM Rhod-2 AM via cold loading/warm incubation. In order to monitor cytosolic Ca^2+, cells were co-loaded with 10 μM Fluo-4 AM at 37′C for 30 min. […] Images for TMRE (red fluorescence), Rhod-2 (red fluorescence) and Fluo-4 (green fluorescence) were obtained using an inverted Zeiss 510META laser-scanning confocal microscope equipped with ×63 numerical aperture, 1.4 oil-immersion planapochromat lens. Green fluorescence and red fluorescence were illuminated with light of 488 nm and 543 nm. […]
Cells were cultured for 24 hours and then pre-treated with Fluo-4 for 30 min. Cells immobilized on a coverslip were transferred to a slide glass and treated with pyrano-1,2-naphthoquinone (10 μM), and at the same time images were taken every 2 seconds for 10 min using a fluorescence microscope.

SMILES | Residual amount of NAD(P)H(%) (NQO1) | decrease of NAD(P)H and consequent body weight reduction (NQO1) | Weight reduction In ob/ob mice (4 wk) [1] | other results
CC1CC2=C(O1)c1ccccc1C(=O)C2=O (centres unmarked) [2-Methyl-2,3-dihydro-naphtho[1,2-b]furan-4,5-dione] | 49.73 ± 1.98 | significant decrease of NAD(P)H | −39.5 ± 3.1% | 
COC1=C(OC)C(=O)C(C/C=C(\C)CC/C=C(\C)CC/C=C(\C)CC/C=C(\C)CC/C=C(\C)CC/C=C(\C)CC/C=C(\C)CC/C=C(\C)CC/C=C(\C)CCC=C(C)C)=C(C)C1=O [CoQ10, reference compound] | 101.69 ± 1.32 |  | 2.3 ± 3.5− % | 
NC(=O)c1ncn([C@@H]2O[C@H](CO)[C@@H](O)[C@H]2O)c1N [AICAR, 5-aminoimidazole-4-carboxamide-1-beta-D-ribofuranoside, reference compound] |  |  |  | phosphorylation of AMPK (AMPK): increase in phosphorylation of AMPK
CC(C)=C/C(C)=C/C1(C)OC2=C(CC1C)C(=O)C(=O)c1ccccc12 (centres unmarked) [2-(2,4-Dimethyl-penta-1,3-dienyl)-2,3-dimethyl-3,4-dihydro-2H-benzo[h]chromene-5,6-dione] | 98.06 ± 5.14 |  | −2.2 ± 0.07% | 
CC1OC2=C(C(=O)C(=O)c3ccccc32)C1(C)C (centres unmarked) [2,3,3-Trimethyl-2,3-dihydro-naphtho[1,2-b]furan-4,5-dione] | 64.39 ± 1.69 | significant decrease of NAD(P)H | −46.2 ± 11.1% | 
CC(C)=CC1(C)CCC2=C(O1)C(=O)c1ccccc1C2=O (centres unmarked) [2-Methyl-2-(2-methyl-propenyl)-3,4-dihydro-2H-benzo[g]Chromene-5,10-dione] | 99.74 ± 2.69 |  | −0.7 ± 2.0% | 
CC1C2=C(OC1(C)C)c1ccccc1C(=O)C2=O (centres unmarked) [2,2,3-Trimethyl-2,3-dihydro-naphtho[1,2-b]furan-4,5-dione] | 52.75 ± 1.88 | significant decrease of NAD(P)H | −27.9 ± 0.5% | 
O=c1oc2ccccc2c(O)c1Cc1c(O)c2ccccc2oc1=O [dicoumarol, reference compound] |  |  |  | effects of βL on ΔΨm in dicoumarol-treated cells (HepG2 cells [2]): did not exhibit such effects; effect on calcium influx by pyrano-1,2-naphthoquinone (HepG2 cells [3]): inhibited
CC1=CC(=O)c2ccccc2C1=O [Menadione, 2-Methyl-1,4-naphthoquinone, reference compound] | 85.65 ± 2.58 |  | −2.7 ± 2.0% | 
CC(C)C1=CC2OC3=C(CC2(C)CC1)C(=O)c1ccccc1C3=O (centres unmarked) [3-Isoprophy-12a-methyl-2,4a,12,12a-tetradro-7H-benzo[b]xanthene-6,11-dione] | 99.45 ± 3.56 |  | 0.3 ± 2.8% | 
CC(C)C1=CC2OC3=C(CC2(C)CC1)C(=O)C(=O)c1ccccc13 (centres unmarked) [10-Isopropyl-7a-methyl-7a,8,9,11a-tetrahydro-7H-benzo[c]xanthene-5,6-dione] | 77.55 ± 4.19 | significant decrease of NAD(P)H | −6.7 ± 2.1% | 
CC1(C)CC2=C(O1)c1ccccc1C(=O)C2=O [2,2-Dimethyl-2,3-dihydro-naphtho[1,2-b]furan-4,5-dione] | 45.9 ± 3.90 | significant decrease of NAD(P)H | −27.8 ± 8.1% | 
NC(=O)c1ccc[n+]([C@@H]2O[C@H](COP(=O)([O-])OP(=O)(O)OC[C@H]3O[C@@H](n4cnc5c(N)ncnc54)[C@H](O)[C@@H]3O)[C@@H](O)[C@H]2O)c1 [NAD^+] |  |  |  | body weight ([1]; NAD+ 100 mg/kg daily i.p., 30 days): continuous weight loss for 30 days; dietary intake/body weight ([1]; NAD+ 100 mg/kg daily i.p., at around 10 days): notably decreased
CC1(C)CCC2=C(O1)C(=O)c1ccccc1C2=O [2,2-Dmethyl-3,4-dihydro-2H-benzo[g]chromene-5,10-dione] | 95 ± 4.5 |  | 1.3 ± 2.8% | 
